For 11 molecules, IC50 and Activity results are on record in ChEMBL document CHEMBL3044989, “Structurecytotoxicity relationship of a novel series of miconazole-like compounds” (Med Chem Res, 2012).

The source made the active and inactive calls. No cut-off for these calls is given here.

Assay [1] concerns Escherichia coli. The experiment in a line: Antimicrobial activity against Escherichia coli (DH5alpha) after 16 hr by spectrophotometry. Type of assay: functional, organism-based. Particulars: DH5[alpha].
Assay [2] concerns K562. The assay is described as follows: Cytotoxicity against Homo sapiens (human) K562 cells at 20 to 80 uM after 24 hr by MTT assay. The class given is functional, cell-based.

With `O=c1ccn(C/C(=N/Nc2ccccc2)c2ccccc2)c(=O)[nH]1`, the IC50 in assay [1] turned out to be 57.3 µM.
In turn, `O=c1cnn(C/C(=N/Nc2ccccc2)c2ccccc2)c(=O)[nH]1` came in with an IC50 in assay [1] of 14.6 µM. Moreover, the outcome in assay [2] was Active.
In the case of `c1ccc(N/N=C(/Cn2ccnc2)c2ccccc2)cc1`, 7.6 µM corresponded to half-maximal inhibition in assay [1] (IC50).
As to `c1ccc(N/N=C(/Cn2cnc3ccccc32)c2ccccc2)cc1`, in assay [1], half-maximal inhibition (IC50) was put at 12.3 µM.
For `COc1ccc(/C(Cn2ccc(=O)[nH]c2=O)=N\Nc2ccccc2)cc1`, the IC50 in assay [1] amounted to 6.2 µM.
Consider `c1ccc(N/N=C(/Cn2nnc3ccccc32)c2ccccc2)cc1`, for which the IC50 in assay [1] worked out at 3.4 µM. The outcome in assay [2] was Active.
With `O=c1[nH]c(=O)n(C/C(=N/Nc2ccccc2)c2ccccc2)cc1Cl`, the IC50 in assay [1] amounted to 4.8 µM.
Regarding `O=C1CNC(=O)N1C/C(=N/Nc1ccccc1)c1ccccc1`, in assay [1], the midpoint of inhibition, the IC50, lay at 3.1 µM. Further, the result in assay [2] was Active.
Consider `c1ccc(N/N=C(/Cn2ccnc2-c2ccccc2)c2ccccc2)cc1`, for which the IC50 in assay [1] worked out at 16.8 µM.
As for `COc1ccc(/C(Cn2cnc3ccccc32)=N\Nc2ccccc2)cc1`, half-maximal inhibition in assay [1] (IC50) required 13.7 µM.
On the same count and under the same terms, then `Cc1cn(C/C(=N/Nc2ccccc2)c2ccccc2)c(=O)[nH]c1=O`, with 7.1 µM.

Broadly, the IC50 is the concentration at which inhibition is half-maximal.
